# US8952024B2, “Herbicidal pyrimidone derivatives” (E I du Pont de Nemours and Company, priority 2009, dated 2015)
# Assays:
# Experiment in all cases: Test C plant response
# Format in all cases: in vivo
# Settings in all cases: Postemergence, scale 0 to 100
# [1] = system: Italian ryegrass (Lolium multiflorum)
# Outline: (§1)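 Compounds in non-phytotoxic solvent mixture with surfactant. Visual rating versus controls after 14 days in controlled environment, scale 0 (no effect) to 100 (complete control).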
# [2] = system: deadnettle (henbit deadnettle, Lamium amplexicaule)
# Outline: as §1
# [3] = system: windgrass (Apera spica-venti)
# Outline: as §1
# [4] = system: wild mustard (Sinapis arvensis)
# Outline: as §1
# kochia (Kochia scoparia) = system: kochia (Kochia scoparia)
# Outline: as §1
# [5] = system: oilseed rape (Brassica napus)
# Outline: as §1
# [6] = system: bromegrass (downy bromegrass, Bromus tectorum)
# Outline: as §1
# [7] = system: field violet (Viola arvensis)
# Outline: as §1
# [8] = system: spring wheat (Triticum aestivum)
# Outline: as §1
# [9] = system: canarygrass (Phalaris minor)
# Outline: as §1
# [10] = system: chickweed (common chickweed, Stellaria media)
# Outline: as §1
# [11] = system: bluegrass (annual bluegrass, Poa annua)
# Outline: as §1
# [12] = system: buckwheat (wild buckwheat, Polygonum convolvulus)
# Outline: as §1
# [13] = system: blackgrass (Alopecurus myosuroides)
# Outline: as §1
# [14] = system: field poppy (Papaver rhoeas)
# Outline: as §1
# [15] = system: winter barley (Hordeum vulgare)
# Outline: as §1
# [16] = system: Russian thistle (Salsola iberica)
# Outline: as §1
# [17] = system: winter wheat (Triticum aestivum)
# Outline: as §1
# [18] = system: wild radish (Raphanus raphanistrum)
# Outline: as §1
# [19] = system: green foxtail (Setaria viridis)
# Outline: as §1
# wild oat (Avena fatua) = system: wild oat (Avena fatua)
# Outline: as §1
# [20] = system: spring barley (Hordeum vulgare)
# Outline: as §1
# [21] = system: galium (catchweed bedstraw, Galium aparine)
# Outline: as §1
compound,measurement,setting,value
"COc1ccc(-n2c(-c3ccccc3)ncc(C(=O)C3=C(O)CCCC3=O)c2=O)cc1 [Compound 4, 5-[(2-hydroxy-6-oxo-cyclohexen-1-yl)carbonyl]-3-(4-methoxyphenyl)-2-phenyl-4(3H)-pyrimidinone]","Plant response rating: Ryegrass, Italian",[1]; 31 g ai/ha,10
same,"Plant response rating: Ryegrass, Italian",[1]; 125 g ai/ha,15
same,Plant response rating: Deadnettle,[2]; 31 g ai/ha,98
same,Plant response rating: Deadnettle,[2]; 125 g ai/ha,100
same,Plant response rating: Windgrass,[3]; 31 g ai/ha,35
same,Plant response rating: Windgrass,[3]; 125 g ai/ha,95
same,"Plant response rating: Mustard, Wild",[4]; 31 g ai/ha,98
same,"Plant response rating: Mustard, Wild",[4]; 125 g ai/ha,100
same,Plant response rating: Kochia,kochia (Kochia scoparia); 31 g ai/ha,90
same,Plant response rating: Kochia,kochia (Kochia scoparia); 125 g ai/ha,95
same,Plant response rating: Oilseed Rape,[5]; 31 g ai/ha,90
same,Plant response rating: Oilseed Rape,[5]; 125 g ai/ha,100
same,"Plant response rating: Bromegrass, Downy",[6]; 31 g ai/ha,35
same,"Plant response rating: Bromegrass, Downy",[6]; 125 g ai/ha,40
same,Plant response rating: Field Violet,[7]; 31 g ai/ha,40
same,Plant response rating: Field Violet,[7]; 125 g ai/ha,60
same,"Plant response rating: Wheat, Spring",[8]; 31 g ai/ha,15
same,"Plant response rating: Wheat, Spring",[8]; 125 g ai/ha,20
same,Plant response rating: Canarygrass,[9]; 31 g ai/ha,0
same,Plant response rating: Canarygrass,[9]; 125 g ai/ha,90
same,Plant response rating: Chickweed,[10]; 31 g ai/ha,98
same,Plant response rating: Chickweed,[10]; 125 g ai/ha,100
same,Plant response rating: Bluegrass,[11]; 31 g ai/ha,35
same,Plant response rating: Bluegrass,[11]; 125 g ai/ha,50
same,"Plant response rating: Buckwheat, Wild",[12]; 31 g ai/ha,95
same,"Plant response rating: Buckwheat, Wild",[12]; 125 g ai/ha,100
same,Plant response rating: Blackgrass,[13]; 31 g ai/ha,20
same,Plant response rating: Blackgrass,[13]; 125 g ai/ha,40
same,Plant response rating: Field Poppy,[14]; 31 g ai/ha,30
same,Plant response rating: Field Poppy,[14]; 125 g ai/ha,50
same,"Plant response rating: Barley, Winter",[15]; 31 g ai/ha,5
same,"Plant response rating: Barley, Winter",[15]; 125 g ai/ha,35
same,Plant response rating: Russian Thistle,[16]; 31 g ai/ha,70
same,Plant response rating: Russian Thistle,[16]; 125 g ai/ha,95
same,"Plant response rating: Wheat, Winter",[17]; 31 g ai/ha,0
same,"Plant response rating: Wheat, Winter",[17]; 125 g ai/ha,20
same,"Plant response rating: Radish, Wild",[18]; 31 g ai/ha,80
same,"Plant response rating: Radish, Wild",[18]; 125 g ai/ha,95
same,"Plant response rating: Foxtail, Green",[19]; 31 g ai/ha,70
same,"Plant response rating: Foxtail, Green",[19]; 125 g ai/ha,95
same,"Plant response rating: Oat, Wild",wild oat (Avena fatua); 31 g ai/ha,20
same,"Plant response rating: Oat, Wild",wild oat (Avena fatua); 125 g ai/ha,50
same,"Plant response rating: Barley, Spring",[20]; 31 g ai/ha,10
same,"Plant response rating: Barley, Spring",[20]; 125 g ai/ha,15
same,Plant response rating: Galium,[21]; 31 g ai/ha,65
same,Plant response rating: Galium,[21]; 125 g ai/ha,90
